From patent publication US6376500B2, “Substituted 2-(4-piperidyl)-4(3H)-quinazolinones and 2-(4-piperidyl)-4(3H)-azaquinazolinones” (Syntex (U.S.A.) LLC, priority 1999, dated 2002)
Structures can show the parent of a compound that is named as a salt.

Legend:
anesthetized dog = experiment: Dog in vivo blood and intraurethral pressure assay; conditions: i.v., anesthetized mongrel dogs
Description: The following describes an in vivo assay for measuring the relative effect of test compounds on hypogastric nerve stimulation-induced increases in intraurethral pressure and phenylephrine-induced increases in diastolic blood pressure in anesthetized dog.
Mongrel dogs (10 to 20 kg) were fasted for 12 to 18 hours and anesthetized with […] (35 mg/kg, i.v.). An endotracheal tube was inserted and thereafter the lungs were mechanically ventilated with room air. The right femoral vein was isolated and cannulated with two polyethylene cannulae, one for the administration of a continuous infusion of phenobarbital sodium (5 to 10 mg/kg/hr) and the other for bolus administration of test substances. The right femoral artery was isolated and cannulated to the abdominal aorta with a fluid filled polyethylene cannula connected to an external pressure transducer for monitoring diastolic aortic pressure (DAP). The bladder was exposed via a ventral midline abdominal incision and emptied of urine through a 22 gauge needle. The bladder was cannulated through a stab incision with a water filled balloon catheter connected to an external pressure transducer for monitoring prostatic intraurethral pressure (IUP). The right hypogastric nerve (HGN) was carefully isolated and attached to a Dastre's electrode for nerve stimulation. […]

Cl.Cl.O=c1[nH]c(C2CCN(CCc3c[nH]c4ccccc34)CC2)nc2cc(Cl)ccc12
melting point: 190 to 195 °C

Cl.O=c1[nH]c(C2CCN(CCc3c[nH]c4cc(F)ccc34)CC2)nc2ccccc12
melting point: 263 to 264 °C

Cl.O=c1[nH]c(C2CCN(CCc3c[nH]c4cc(F)ccc34)CC2)nc2ccc(Cl)cc12
melting point: 292 to 294 °C

Cl.O=c1[nH]c(C2CCN(CCc3c[nH]c4ccc(F)cc34)CC2)nc2ccccc12
melting point: 298 to 301 °C

Cl.O=c1[nH]c(C2CCN(CCc3c[nH]c4cc(F)ccc34)CC2)nc2cc(Cl)ccc12
melting point: 256 to 266 °C

Cl.O=c1[nH]c(C2CCN(CCc3c[nH]c4ccc(F)cc34)CC2)nc2ccc(Cl)cc12
melting point: 290 °C (dec.)

Cl.O=c1[nH]c(C2CCN(CCc3c[nH]c4ccc(F)cc34)CC2)nc2cc(Cl)ccc12
melting point: 300 °C (dec.)

COc1ccc2nc(C3CCN(CCc4c[nH]c5cc(F)ccc45)CC3)[nH]c(=O)c2c1.Cl
melting point: 230 to 232 °C

O=c1[nH]c(C2CCN(CCc3c[nH]c4ccccc34)CC2)nc2ccccc12 (as salt: hydrochloride)
melting point: 268 to 270 °C

Cl.O=c1[nH]c(C2CCN(CCc3c[nH]c4ccc(F)cc34)CC2)nc2cc(F)ccc12
melting point: 283 °C (dec.)

Cl.O=c1[nH]c(C2CCN(CCc3c[nH]c4cc(F)ccc34)CC2)nc2cc(F)ccc12
melting point: 205 to 209 °C

COc1cc2nc(N3CCN(C(=O)c4ccco4)CC3)nc(N)c2cc1OC [prazosin]
inhibition of HGN stimulation-induced increases in IUP and phenylephrine-induced increases in DAP (anesthetized dog): inhibited increases in IUP and DAP in similar fashion

COc1cc2nc(C3CCN(CCc4c[nH]c5cc(F)ccc45)CC3)[nH]c(=O)c2cc1OC.Cl
melting point: 229 to 231 °C

Cl.Cl.O=c1[nH]c(C2CCN(CCc3c[nH]c4cc(F)ccc34)CC2)nc2ccc(F)cc12
melting point: 195 to 197 °C

Cl.Cl.O=c1[nH]c(C2CCN(CCc3c[nH]c4cc(F)ccc34)CC2)nc2cc(F)c(F)cc12
melting point: 215 to 217 °C

Cl.O=c1[nH]c(C2CCN(CCc3c[nH]c4ccccc34)CC2)nc2cc(F)ccc12
melting point: 220 to 225 °C
